Source: ChEMBL document CHEMBL4819004, “Discovery of selective CDK9 degraders with enhancing antiproliferative activity through PROTAC conversion” (Eur J Med Chem, 2021)
The source made the active and inactive calls. No cut-off for these calls is given here.

Legend:
[1] = tested on: MV4-11; assay: Induction of apoptosis in human MV4-11 cells assessed as necrotic cells at 500 nM after 6 hrs by AnnexinV-FITC/propidium iodide staining based flow cytometry (reference value: 0.16 %); format: functional
[2] = target: Cyclin-dependent kinase 9 (Homo sapiens) (UniProt P50750); assay: Inhibition of human full length recombinant CDK9 expressed in bacterial expression system assessed as remaining enzyme activity at 1 uM by competitive binding Kinome scan analysis
Sequence of Cyclin-dependent kinase 9 (Homo sapiens) (P50750 whole entry): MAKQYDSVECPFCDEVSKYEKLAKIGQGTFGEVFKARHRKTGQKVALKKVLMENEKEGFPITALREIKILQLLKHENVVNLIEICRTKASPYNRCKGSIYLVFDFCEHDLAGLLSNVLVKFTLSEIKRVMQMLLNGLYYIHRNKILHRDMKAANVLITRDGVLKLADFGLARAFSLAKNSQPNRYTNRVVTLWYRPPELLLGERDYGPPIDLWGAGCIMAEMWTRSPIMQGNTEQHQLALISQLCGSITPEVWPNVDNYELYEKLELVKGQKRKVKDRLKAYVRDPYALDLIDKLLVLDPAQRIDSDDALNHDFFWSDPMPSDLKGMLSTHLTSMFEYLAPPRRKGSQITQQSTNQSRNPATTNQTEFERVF

[3] = tested on: MCF7; assay: Antiproliferative activity against human MCF7 cells incubated for 72 hrs by MTT assay; format: functional, cell-based; details: MCF7, 72 h
[4] = tested on: B16; assay: Antiproliferative activity against mouse B16 cells incubated for 72 hrs by MTT assay; format: functional, cell-based; details: B16, 72 h
[5] = target: Protein cereblon/Cyclin-dependent kinase 2 (Homo sapiens) (UniProt P24941+Q96SW2); assay: PROTAC activity at CRBN/CDK2 in human MV4-11 cells assessed as induction of CDK2 degradation at 31.25 to 500 nM measured after 3 hrs by western blot analysis; format: cell-based; details: dose 31.25-500 nM
[6] = target: T1, Protein cereblon/Cyclin-dependent kinase 9 (Homo sapiens, UniProt P50750+Q96SW2); assay: Protac activity at CRBN/CDK9 in human MV4-11 cells assessed as CDK9 degradation rate at 500 nM incubated for 6 hrs by Western blot assay relative to control; format: cell-based
T1 sequence (P50750 whole entry, looked up): as the sequence (P50750 whole entry) above
T1 sequence (Q96SW2 whole entry, looked up): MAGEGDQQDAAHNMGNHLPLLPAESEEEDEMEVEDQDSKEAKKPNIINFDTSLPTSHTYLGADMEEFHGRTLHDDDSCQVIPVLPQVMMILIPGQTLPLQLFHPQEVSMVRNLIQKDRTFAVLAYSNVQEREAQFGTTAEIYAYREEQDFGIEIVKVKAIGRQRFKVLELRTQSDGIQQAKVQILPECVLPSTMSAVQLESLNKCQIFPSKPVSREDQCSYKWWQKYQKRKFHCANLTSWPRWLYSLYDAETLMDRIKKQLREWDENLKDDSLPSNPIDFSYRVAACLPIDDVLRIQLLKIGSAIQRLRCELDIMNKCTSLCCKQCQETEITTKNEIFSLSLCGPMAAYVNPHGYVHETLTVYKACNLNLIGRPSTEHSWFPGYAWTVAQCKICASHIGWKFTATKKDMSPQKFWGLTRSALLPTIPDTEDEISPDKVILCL

[7] = tested on: MV4-11; assay: Induction of apoptosis in human MV4-11 cells assessed as total apoptotic cells at 500 nM after 6 hrs by AnnexinV-FITC/propidium iodide staining based flow cytometry (reference value: 9.75 %); format: functional
[8] = target: T1, Protein cereblon/Cyclin-dependent kinase 9; assay: Protac activity at CRBN/CDK9 in human MV4-11 cells assessed as induction of CDK9 degradation at 250 nM pretreated for 2 hrs with proteasome inhibitor, MG132 followed by incubation with compound for 6 hrs by western blot analysis; format: cell-based
[9] = tested on: MV4-11; assay: Induction of apoptosis in human MV4-11 cells assessed as late apoptotic cells at 1 nM after 6 hrs by AnnexinV-FITC/propidium iodide staining based flow cytometry (reference value: 4.29%); format: functional
[10] = target: T1, Protein cereblon/Cyclin-dependent kinase 9; assay: Protac activity at CRBN/CDK9 in human MOLM-13 cells assessed as CDK9 degradation rate at 500 nM incubated for 6 hrs by Western blot assay relative to control; format: cell-based
[11] = target: T1, Protein cereblon/Cyclin-dependent kinase 9; assay: Protac activity at CRBN/CDK9 in human MV4-11 cells assessed as induction of CDK9 degradation by measuring MCL-1 protein expression level at 250 nM measured after 12 hrs by western blot analysis; format: cell-based
[12] = tested on: MV4-11; assay: Induction of apoptosis in human MV4-11 cells assessed as early apoptotic cells at 1000 nM after 6 hrs by AnnexinV-FITC/propidium iodide staining based flow cytometry (reference value: 5.36 %); format: functional
[13] = tested on: MV4-11; assay: Induction of apoptosis in human MV4-11 cells assessed as early apoptotic cells at 100 nM after 6 hrs by AnnexinV-FITC/propidium iodide staining based flow cytometry (reference value: 5.36 %); format: functional
[14] = target: Protein cereblon/Cyclin-dependent kinase 7 (Homo sapiens) (UniProt P50613+Q96SW2); assay: PROTAC activity at CRBN/CDK7 in human MV4-11 cells assessed as induction of CDK7 degradation at 31.25 to 500 nM measured after 3 hrs by western blot analysis; format: cell-based; details: dose 31.25-500 nM
Sequence of Protein cereblon/Cyclin-dependent kinase 7 (Homo sapiens) (P50613 whole entry, looked up): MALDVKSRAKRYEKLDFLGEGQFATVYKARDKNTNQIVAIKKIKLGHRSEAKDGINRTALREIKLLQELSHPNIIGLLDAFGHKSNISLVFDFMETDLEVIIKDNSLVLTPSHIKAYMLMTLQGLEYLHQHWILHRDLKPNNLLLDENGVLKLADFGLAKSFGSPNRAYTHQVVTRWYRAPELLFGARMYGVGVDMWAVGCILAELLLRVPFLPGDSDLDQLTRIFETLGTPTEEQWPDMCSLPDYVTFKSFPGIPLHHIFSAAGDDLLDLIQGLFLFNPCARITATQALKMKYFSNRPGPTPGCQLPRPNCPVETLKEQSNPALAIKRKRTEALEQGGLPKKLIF
Sequence of Protein cereblon/Cyclin-dependent kinase 7 (Homo sapiens) (Q96SW2 whole entry, looked up): as the sequence (Q96SW2 whole entry, looked up) above

[15] = target: CDK9/cyclin T1 (Homo sapiens, UniProt P50750); assay: Inhibition of CDK9/cyclin T (unknown origin) using YSPTSPSYSPTSPSYSPTSPKKK or histone H1 as substrate incubated for 2 hrs in presence of [gamma-33P]ATP by radioactive filter binding assay; format: protein-complex assay
Sequence of CDK9/cyclin T1 (O60563 whole entry): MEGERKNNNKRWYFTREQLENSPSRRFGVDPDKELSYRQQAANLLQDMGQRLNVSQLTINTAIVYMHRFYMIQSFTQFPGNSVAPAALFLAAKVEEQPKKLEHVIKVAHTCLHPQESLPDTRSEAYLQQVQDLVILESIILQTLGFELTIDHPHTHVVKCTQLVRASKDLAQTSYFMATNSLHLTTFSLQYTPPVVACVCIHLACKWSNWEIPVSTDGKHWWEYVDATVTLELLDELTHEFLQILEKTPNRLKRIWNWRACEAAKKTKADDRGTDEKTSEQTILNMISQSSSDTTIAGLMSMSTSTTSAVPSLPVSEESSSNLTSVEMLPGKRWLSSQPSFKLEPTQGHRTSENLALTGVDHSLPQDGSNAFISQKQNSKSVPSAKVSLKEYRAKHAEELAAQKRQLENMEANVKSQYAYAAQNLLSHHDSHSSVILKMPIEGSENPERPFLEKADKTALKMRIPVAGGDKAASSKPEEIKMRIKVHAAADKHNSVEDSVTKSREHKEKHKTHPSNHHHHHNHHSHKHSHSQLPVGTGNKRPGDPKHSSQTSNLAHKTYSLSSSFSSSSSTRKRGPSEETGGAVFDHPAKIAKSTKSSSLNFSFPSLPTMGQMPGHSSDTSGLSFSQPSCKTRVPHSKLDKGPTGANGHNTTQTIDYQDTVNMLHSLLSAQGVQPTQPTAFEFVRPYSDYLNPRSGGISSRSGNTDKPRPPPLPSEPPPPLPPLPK
Sequence of CDK9/cyclin T1 (P50750 whole entry): as the sequence (P50750 whole entry) above

[16] = tested on: MV4-11; assay: Induction of apoptosis in human MV4-11 cells assessed as total apoptotic cells at 100 nM after 6 hrs by AnnexinV-FITC/propidium iodide staining based flow cytometry (reference value: 9.75 %); format: functional
[17] = tested on: MV4-11; assay: Induction of apoptosis in human MV4-11 cells assessed as late apoptotic cells at 250 nM after 6 hrs by AnnexinV-FITC/propidium iodide staining based flow cytometry (reference value: 4.29%); format: functional
[18] = tested on: MV4-11; assay: Induction of apoptosis in human MV4-11 cells assessed as necrotic cells at 1000 nM after 6 hrs by AnnexinV-FITC/propidium iodide staining based flow cytometry (reference value: 0.16 %); format: functional
[19] = target: T1, Protein cereblon/Cyclin-dependent kinase 9; assay: PROTAC activity at CRBN/CDK9 in human MV4-11 cells assessed as reduction in CDK9 protein expression at 100 nM measured after 3 hrs by whole proteome mass spectrometry; format: cell-based
[20] = tested on: MV4-11; assay: Induction of apoptosis in human MV4-11 cells assessed as early apoptotic cells at 1 nM after 6 hrs by AnnexinV-FITC/propidium iodide staining based flow cytometry (reference value: 5.36 %); format: functional
[21] = tested on: MV4-11; assay: Induction of apoptosis in human MV4-11 cells assessed as viable cells at 1 nM after 6 hrs by AnnexinV-FITC/propidium iodide staining based flow cytometry (reference value: 90.1 %); format: functional; details: read-out: Activity
[22] = tested on: MV4-11; assay: Induction of apoptosis in human MV4-11 cells assessed as viable cells at 500 nM after 6 hrs by AnnexinV-FITC/propidium iodide staining based flow cytometry (reference value: 90.1 %); format: functional; details: read-out: Activity
[23] = tested on: MV4-11; assay: Induction of apoptosis in human MV4-11 cells assessed as necrotic cells at 250 nM after 6 hrs by AnnexinV-FITC/propidium iodide staining based flow cytometry (reference value: 0.16 %); format: functional
[24] = tested on: HepG2; assay: Antiproliferative activity against human HepG2 cells incubated for 72 hrs by MTT assay; format: functional, cell-based; details: HepG2, 72 h
[25] = tested on: MV4-11; assay: Induction of apoptosis in human MV4-11 cells assessed as viable cells at 30 nM after 6 hrs by AnnexinV-FITC/propidium iodide staining based flow cytometry (reference value: 90.1 %); format: functional; details: read-out: Activity
[26] = tested on: MV4-11; assay: Induction of apoptosis in human MV4-11 cells assessed as viable cells at 100 nM after 6 hrs by AnnexinV-FITC/propidium iodide staining based flow cytometry (reference value: 90.1 %); format: functional; details: read-out: Activity
[27] = tested on: MV4-11; assay: Induction of apoptosis in human MV4-11 cells assessed as necrotic cells at 30 nM after 6 hrs by AnnexinV-FITC/propidium iodide staining based flow cytometry (reference value: 0.16 %); format: functional
[28] = tested on: MV4-11; assay: Induction of apoptosis in human MV4-11 cells assessed as total apoptotic cells at 1 nM after 6 hrs by AnnexinV-FITC/propidium iodide staining based flow cytometry (reference value: 9.75 %); format: functional
[29] = tested on: MV4-11; assay: Induction of apoptosis in human MV4-11 cells assessed as necrotic cells at 100 nM after 6 hrs by AnnexinV-FITC/propidium iodide staining based flow cytometry (reference value: 0.16 %); format: functional
[30] = tested on: MV4-11; assay: Potency index, ratio of BAY-1143572 IC50 to test compound IC50 for antiproliferative activity against human MV4-11 cells incubated for 72 hrs by MTT assay; format: functional
[31] = tested on: MV4-11; assay: Induction of apoptosis in human MV4-11 cells assessed as late apoptotic cells at 100 nM after 6 hrs by AnnexinV-FITC/propidium iodide staining based flow cytometry (reference value: 4.29%); format: functional
[32] = Half life in BALB/c nude mouse xenografted with human MV4-11 cells at 5 mg/kg, iv by LC/MS/MS analysis; format: ADME, organism-based; details: in vivo

COc1cc(F)ccc1-c1ncnc(Nc2cccc(CS(C)(=O)=NC(=O)CCCCCCCC(=O)NCCNc3cccc4c3C(=O)N(C3CCC(=O)NC3=O)C4=O)c2)n1 (configuration not stated)
Activity [1]: 0.72% | Activity [2]: < 10% | IC50 [3]: 3120 nM | IC50 [4]: 1400 nM | Activity [5]: inactive | Activity [6]: 100% | Activity [7]: 67.9% | Activity [8]: inactive | Activity [9]: 14% | Activity [10]: 100% | Activity [11]: 0% | Activity [12]: 54.4% | Activity [13]: 11.5% | Activity [14]: inactive | IC50 [15]: 8.68 nM | Activity [16]: 26.8% | Activity [17]: 14.3% | Activity [18]: 0.4% | Activity [19]: Active | Activity [20]: 6.13% | viability at 0.001 µM [21]: 79.1% | viability at 0.5 µM [22]: 31.3% | Activity [23]: 0.47% | IC50 [24]: 2110 nM | viability at 0.03 µM [25]: 77.6% | viability at 0.1 µM [26]: 72.7% | Activity [27]: 0.28% | Activity [28]: 22.1% | Activity [29]: 0.47% | Ratio IC50 [30]: 20 | Activity [31]: 15.3% | half-life [32]: 1.3 h
